Where two headings read alike, the source gives them in different places.
Legend:
[1] = system: Meloidogyne spp. (root-knot nematode); experiment: Meloidogyne spp. contact activity, preventive, cucumber seed in filter paper pouch; type: in vivo
Experimental: (§1) Filter papers (9 cm×4.5 cm) with a small pocket were placed into plastic pouches (12 cm×6 cm). One cucumber cv. Toshka seed was placed in the centre of the filter paper pocket of all the pouches needed for a test. […] Prior to application, the compound solution was prepared at twice the concentration required and the egg suspension is prepared with FORL nutrient solution with 3000 eggs/0.5 ml. After applying all the treatments, 3000 eggs (in 0.5 ml of FORL nutrient solution) were pipetted into the pouches. The pouches were incubated in a moist chamber for twelve days and watered regularly to maintain good filter paper moisture essential for the growing cucumber root system. After this period, the filter paper containing the germinated cucumber seedling was removed from the plastic pouch to assess the number of galls caused by Meloidogyne spp. per root system. Phytotoxicity was measured as a reduction of growth of the emerged cucumber seedling in comparison to the control.
as §1, with “system.” for “system. Phytotoxicity was measured as a reduction of growth of the emerged cucumber seedling in comparison to the control.”

M. incognita = experiment: Meloidogyne spp. contact activity, preventive, cucumber in pots treated with WP10 suspension; type: in vivo
Experimental: Cucumber cv. Toshka seeds were sown directly into pots filled with a sandy substrate. Six days later pots were each treated with 5 ml of a WP10 suspension of the test compound. Hereafter, pots were inoculated with 3000 eggs of M. incognita. The trial was harvested fourteen days after trial application and inoculation. Root galling was assessed according to Zeck's gall index (Zeck W. M. (1971) Ein Bonitierungsschema zur Feldauswertung von Wurzelgallenbefall. Pflanzenschutznachrichten Bayer 24, 1: 144-147). Phytotoxicity was measured as a reduction of growth of the emerged cucumber seedling in comparison to the control.

LogP (Table 1) = type: physicochemical
[2] = system: Pratylenchus zeae (Corn Lesion Nematode); experiment: Pratylenchus zeae contact activity, preventive, coated corn seeds; type: in vivo; details: seed treatment 1 mg Al/seed, corn cv. LG4620, 1500 nematodes, 7 days after inoculation
Experimental: Coated corn cv. LG4620 seeds were sown 1 cm deep into 45 ml pots with soil (7:3 w/w—a mixture of 70% field soil and 30% quartz Sand). Two days after sowing the pots were infested with 1500 nematodes (all stages) of Pratylenchus zeae within a 2 ml suspension in two holes to the left and right of the seed hole. Assessment of phytotoxicity (in %) and nematode numbers within the root system occurred 7 days after inoculation. The upper plant part was cut off and the roots were washed free of soil debris. Nematodes within the roots were stained with acid fuchsin stain solution. Nematodes within the roots were quantified under a dissecting scope at 40×. Seed treatment rate: 1 mg Al/seed

[3] = 1.6 ppm, cucumber pouch test, read-out: Mortality (%)
[4] = 8 ppm, cucumber pouch test, read-out: Mortality (%)
[5] = 40 ppm, cucumber pouch test, read-out: Mortality (%)
[6] = 200 ppm, cucumber pouch test, read-out: Mortality (%)
[7] = 0.16 ppm, cucumber pot test, read-out: Mortality (%)
[8] = 0.8 ppm, cucumber pot test, read-out: Mortality (%)
[9] = 4 ppm, cucumber pot test, read-out: Mortality (%)
[10] = 20 ppm, cucumber pot test, read-out: Mortality (%)

Which results are given for O=C(N[C@H]1CC[C@H]1c1ccc(Cl)cc1Cl)c1scnc1C(F)F [Example 9, N-[(1S,2S)-2-(2,4-dichlorophenyl)cyclobutyl]-4-(difluoromethyl)thiazole-5-carboxamide]?
mortality at 1.6 ppm [1, 3]: 0%; mortality at 8 ppm [1, 4]: 64%; mortality at 40 ppm [1, 5]: 81%; mortality at 200 ppm [1, 6]: 98%; mortality at 0.16 ppm (M. incognita; [7]): 22%; mortality at 0.8 ppm (M. incognita; [8]): 61%; mortality at 4 ppm (M. incognita; [9]): 97%; mortality at 20 ppm (M. incognita; [10]): 98%; logP (LogP (Table 1)): 3.25

With O=C(N[C@H]1CC[C@H]1c1ccc(F)cc1F)c1scnc1C(F)(F)F [Example 6, N-[(1S,2S)-2-(2,4-difluorophenyl)cyclobutyl]-4-(trifluoromethyl)thiazole-5-carboxamide] as the compound, how does the logP (LogP (Table 1)) read?
Its logP is 2.71.

For O=C(N[C@H]1CC[C@H]1c1ccc(F)cc1F)c1scnc1C(F)F [Example 8, 4-(difluoromethyl)-N-[(1S,2S)-2-(2,4-difluorophenyl)cyclobutyl]thiazole-5-carboxamide], which logP (LogP (Table 1)) is on record?
Its logP is 2.4.

With O=C(N[C@H]1CC[C@H]1c1ccc(Cl)cc1Cl)c1scnc1C(F)(F)F [Example 7, N-[(1S,2S)-2-(2,4-dichlorophenyl)cyclobutyl]-4-(trifluoromethyl)thiazole-5-carboxamide] as the compound, how does the mortality at 1.6 ppm [1, 3] read?
Its mortality at 1.6 ppm is 77%.

And the mortality at 8 ppm [1, 4]?
The mortality at 8 ppm was 90%.

What about the mortality at 40 ppm [1, 5] of the same compound?
The mortality at 40 ppm was 98%.

What about the mortality at 200 ppm [1, 6] of the same compound?
The mortality at 200 ppm was 99%.

What about the mortality at 0.16 ppm (M. incognita; [7]) of the same compound?
The mortality at 0.16 ppm was 14%.

And the mortality at 0.8 ppm (M. incognita; [8])?
Its mortality at 0.8 ppm is 14%.

What about the mortality at 4 ppm (M. incognita; [9]) of the same compound?
Its mortality at 4 ppm is 60%.

What about the mortality at 20 ppm (M. incognita; [10]) of the same compound?
The mortality at 20 ppm was 99%.

And the logP (LogP (Table 1))?
Its logP is 3.44.

For O=C(N[C@H]1CC[C@H]1c1ccc(F)cc1Cl)c1scnc1C(F)(F)F [Example 5, N-[(1S,2S)-2-(2-chloro-4-fluoro-phenyl)cyclobutyl]-4-(trifluoromethyl)thiazole-5-carboxamide], which “reduction of nematode population compared to the untreated control” value [2] is on record?
Its value is “greater than 80%”.

What about the logP (LogP (Table 1)) of the same compound?
The logP was 2.92.

Which logP (LogP (Table 1)) does the source give for O=C(N[C@H]1CC[C@H]1c1ccc(Cl)cc1)c1scnc1C(F)(F)F [Example 4, N-[(1S,2S)-2-(4-chlorophenyl)cyclobutyl]-4-(trifluoromethyl)thiazole-5-carboxamide] here?
The logP was 3.21.

And the melting point?
Its melting point is 103 to 108 °C.

For Cc1nc(C(F)(F)F)c(C(=O)N[C@H]2CC[C@H]2c2ccc(Cl)cc2Cl)s1 [C, reference compound], which mortality at 1.6 ppm [1] is on record?
Its mortality at 1.6 ppm is 0%.

What about the mortality at 8 ppm [1] of the same compound?
The mortality at 8 ppm was 0%.

And the mortality at 40 ppm [1]?
Its mortality at 40 ppm is 0%.

What about the mortality at 200 ppm [1] of the same compound?
The mortality at 200 ppm was 0%.

And the mortality at 0.16 ppm (M. incognita)?
Its mortality at 0.16 ppm is 0%.

What about the mortality at 0.8 ppm (M. incognita) of the same compound?
Its mortality at 0.8 ppm is 0%.

What about the mortality at 4 ppm (M. incognita) of the same compound?
Its mortality at 4 ppm is 0%.

And the mortality at 20 ppm (M. incognita)?
The mortality at 20 ppm was 0%.
